Patent publication US4948873A, “Gonadoliberine analogues of high activity” (Richter Gedeon Vegyeszeti Gyar, priority 1985, dated 1990)

Legend:
Type in all cases: in vivo
LH hormone = test: LH concentration in the serum of male mice after subcutaneous administration (radioimmunoassay); conditions: dose 200 ng/mouse; for LH serum level in mice after the treatments, 2 hours: 2 hours after treatment; for LH serum level in mice after the treatments, 4 hours: 4 hours after treatment; for LH serum level in mice after the treatments, 6 hours: 6 hours after treatment
Procedure: The common feature of the superactive GnRH analogues is that they liberate many times the amount of LH hormone than the natural GnRH could do and the duration of their effect is also much longer. In order to illustrate the above statements the activity for liberating LH hormone of the natural GnRH analogues and some superactive and some representatives of the GnRH analogues of formula I according to the invention are shown in FIG. 1. The experiments were carried out on male mice, the active ingredient was administered subcutaneously and the LH content of the serum of the blood of the animals was measured by radioimmunoassay.
Table I summarizes the biological data of a preferable representative of the GnRH analogues of formula I, Asu^6 -desGly^10 -GnRH-ethylamide.

rats [1] = test: Toxicity in rats, single dose; conditions: single dose of 10 mg/kg
Text: (§1) The toxicity data of Asu^6, desGly^10 -GnRH-ethylamide are as follows: […]

rats [2] = test: Toxicity in rats, administration for 17 days; conditions: 10 μg/rat for 17 days
Text: as §1

[3] = tested on: sexually mature female rats; test: Inhibition of ovulation in rats; conditions: 0.5 μg/rat for 17 days
Procedure: (c) Inhibition of ovulation in rats
The compound was administered for 17 days in a dose of 0.5 μg/rats to sexually mature female rats. The inhibition of ovulation was 100%. The experimental method is described in B.B.R.C. 118, 351 […] Kovacs et al.

[4] = tested on: sexually matured female rabbits; test: Induction of ovulation in angora rabbit; conditions: single dose of 1.5 μg/rabbit, thereafter artificially inseminated
Procedure: (d) Induction of ovulation in angora rabbit
The sexually matured female rabbits were administered with a single does of 1.5 μg/rabbit, thereafter artificially inseminated. 90% of the animals became pregnant.

| Substance | LH serum level in mice after the treatments, 2 hours (LH hormone) | LH serum level in mice after the treatments, 4 hours (LH hormone) | LH serum level in mice after the treatments, 6 hours (LH hormone) | toxicity (rats [1]) | toxicity (rats [2]) | inhibition of ovulation [3] | animals that became pregnant [4] |
| --- | --- | --- | --- | --- | --- | --- | --- |
| GnRh: native gonadoliberine peptide hormone of hypothalamic origin [reference compound] | 85.2 ng/mL | 81.4 ng/mL | 87.0 ng/mL |  |  |  |  |
| Glp-His-Trp-Ser-Tyr-Asu-Leu-Arg-Pro-ethylamide [Asu^6,desGly^10 -GnRH-ethylamide] | 958.4 ng/mL | 702.3 ng/mL | 216.2 ng/mL | did not prove to be toxic | atoxic | 100% | 90% |
